Assay results from article PMC12311729, “Probing the Mechanism of L‑DOPA 2,3-Dioxygenase Using Synthetic Derivatives of 3,4-Dihydroxyhydrocinnamic Acid” (ACS Omega, 2025).

Assays:
[1] = target: L-DOPA 2,3-dioxygenase from S. lincolnensis (LmbB1) (Streptomyces lincolnensis, UniProt Q54354); experiment: UV-visible steady-state assay of L-DOPA 2,3-dioxygenase (LmbB1); type: biochemical; conditions: for kSP, O2 (μM^-1 min^-1) at pH 7.5 relative to L-DOPA x 100 for LmbB1: percentage of the value for L-DOPA
Chain of L-DOPA 2,3-dioxygenase from S. lincolnensis (LmbB1) (Q54354 entry or part of it): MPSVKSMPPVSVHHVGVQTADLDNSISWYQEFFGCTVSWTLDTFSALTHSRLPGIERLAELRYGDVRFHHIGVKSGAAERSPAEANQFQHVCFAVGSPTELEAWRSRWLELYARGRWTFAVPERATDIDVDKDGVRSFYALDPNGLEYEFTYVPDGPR
Experimental: (§1) Purified, reconstituted L-DOPA 2,3-dioxygenases were assessed for activity by monitoring the cleavage of catecholic substrates using UV–visible spectroscopy. 3,4-Dihydroxyhydrocinnamic acid (DHHCA, 3) was purchased from Sigma-Aldrich. 6-CyanoDHHCA (5) and 6-bromoDHHCA (4) were synthesized as described above.
(§2) Molecular oxygen (AirGas) was bubbled directly into the reaction buffer through a glass-bonded silica gas diffuser (Bubblemac Industries, Inc.) or as a gas mixture blended with air (AirGas). Solutions were bubbled with oxygen for several minutes prior to use and for the duration of the experiment. To determine the K M for oxygen (i.e., K MO2), L-DOPA 2,3-dioxygenases (0.25–4.0 μM) were reacted with a saturating concentration of the catecholic substrate DHHCA/6-X-DHHCA derivatives (2–10× the K M sufficient to achieve k cat) and various oxygen concentrations (21–100% or 270–1300 μM at 22 °C). The concentration of oxygen was varied by changing the percentage of oxygen in the blend using a galvanic oxygen sensor and oxygen monitor (AirGas) and then bubbling solutions, as described above. Molecular oxygen percentages were converted to molar concentrations using a reference temperature of 22 °C. The reaction of L-DOPA 2,3-dioxygenases with DHHCA/6-X-DHHCA derivatives as a function of oxygen concentration was followed by the appearance of the steady-state cleavage product by using UV–visible spectroscopy.
(§3) The extinction coefficients for steady-state cleavage products of DHHCA and synthetic 6-X-DHHCA derivatives were determined by reacting various concentrations of DHHCA/6-X-DHHCA derivatives at 22 °C with a 10-fold stoichiometric excess of enzyme (quantified by Fe^II–see Reconstitution) in 50 mM HEPES buffer with 154 mM NaCl at pH 7.5, bubbled with 100% oxygen to a final concentration of 780–910 μM, depending on the volume of oxygenated buffer that comprised the reaction (60–70%). Substrate solutions were prepared from authentic synthetic standards using an analytical balance, and reactions were run to completion as assessed by the appearance of the steady-state product. The λmax and extinction coefficients of DHHCA, 6-cyanoDHHCA, and 6-bromoDHHCA were determined herein as ε380 = 40 740 ± 820 M^–1cm^–1, ε385 = 33 256 ± 484 M^–1cm^–1, and ε380 = 35 282 ± 1190 M^–1cm^–1, respectively (Figure S52).
(§4) Steady-state kinetic data were obtained through a UV–visible spectroscopic assay. Initial rates were obtained from the slopes of the linear regions of the progress curves and plotted versus substrate concentration to yield a hyperbola, which was analyzed using the Michaelis–Menten expression and nonlinear least-squares fitting (NLSF) with Origin 6.0 (Microcal). Two possible derivations of the Michaelis–Menten expression were used: 1) the traditional expression y = k cat × x/(K M + x), where y is Rate/E 0 or the rate of product formation (μM/min) divided by the starting enzyme concentration (μM), x is substrate concentration (μM) and k SP (also known as k cat × K M ^–1)–that is, the second-order rate constant of enzyme and substrate–is extracted from the fitted constants; or 2) the alternative derivation that extracts k SP and k cat directly from the fit: y = (k SP × x)/((1 + k SP × x)/k cat), and where y is Rate/E 0 or the rate of product formation (μM/min) divided by the starting enzyme concentration (μM), x is substrate concentration (μM), k SP is equivalent to k cat×K M ^–1, and K M is extracted from k cat/k cat×K M ^–1.

[2] = target: L-DOPA 2,3-dioxygenase from S. hygroscopicus jingganensis (ShjDDO) (Streptomyces hygroscopicus, UniProt H2JL11); experiment: UV-visible steady-state assay of L-DOPA 2,3-dioxygenase (ShjDDO); type: biochemical; conditions: for kSP, O2 (μM^-1 min^-1) at pH 7.5 relative to L-DOPA x 100 for ShjDDO: percentage of the value for L-DOPA
Chain of L-DOPA 2,3-dioxygenase from S. hygroscopicus jingganensis (ShjDDO) (H2JL11 1-162): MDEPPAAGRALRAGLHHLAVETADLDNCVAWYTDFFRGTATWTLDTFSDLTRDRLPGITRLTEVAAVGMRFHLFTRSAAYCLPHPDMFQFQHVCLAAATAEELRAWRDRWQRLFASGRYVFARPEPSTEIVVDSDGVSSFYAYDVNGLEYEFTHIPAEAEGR
Experimental: as §1, §2, §3, §4

[3] = Cyclic voltammetry (redox potentials on a GCE); type: physicochemical; conditions: for (E p)a Oxidation / (E p)c Reduction / E1/2 / Ipa/Ipc / ΔE p: GCE (d = 2 mm)
From the text: Reduction and oxidation potentials were experimentally performed by cyclic voltammetry (CV) at biological pH 7.4, as previously described. All samples were run on a CH Instruments 600E Potentiostat in a one-compartment cell equipped with a three-electrode system arrangement. The three-electrode system included a saturated calomel electrode as the reference electrode, a platinum wire as the auxiliary electrode, and a glassy carbon electrode (GCE, d = 2 mm) as the working electrode. The GCE was polished between each sample scan with an aqueous slurry of alumina powder on a microcloth pad. The electrodes were rinsed with distilled water prior to the next scan. All scans were conducted under nitrogen for oxygen displacement and at room temperature (rt, 25 ± 1 °C). All samples were prepared as close to the scan as possible (approximately 2 min each). Each sample (5 mL) contained 0.1 mM catecholic substrate and 1 μM DMSO in 0.1 M phosphate buffer at a pH of 7.4 or 6.0. […] The cyclic voltammograms for the compounds at both pH 6.0 and 7.4 are available in Figures S40–S51.

[4] = Determination of pKa values by spectrophotometric titration; conditions: for pK a value: first catecholic deprotonation, determined spectroscopically from pH 3 to 12.5
Experimental: A buffer system utilizing five different buffers was prepared to cover the pH range of 3.0 to 12.50. A Thermo Scientific Orion Star A211 pH meter was used to measure and determine the pH of each buffer. The pH meter was calibrated using three- and four-point calibration with pH values of 4.00, 7.01, and 10.01 and 4.00, 7.01, 10.01, and 12.00, respectively.
The buffer systems were prepared as previously described and included: NaOAc/HOAc buffers (C = 0.1 M; I = 0.1 M) were used to cover the pH range of 3.0 to 5.50. KH2PO4/K2HPO4 buffers (C = 0.05 M; I = 0.1 M) were used to cover the pH range of 6.00 to 8.00. CHES buffers (C = 0.05 M; I = 0.1 M) were used to cover the pH range of 8.50 to 10.50. Na2HPO4/Na3PO4 buffers (C = 0.05 M; I = 0.1 M) were used to cover the pH range of 11.00 to 12.00. KCl buffers (C = 0.1 M; I = 0.1 M) were used to cover the pH range of 12.00 to 12.50.
The absorbance spectra of the compounds were determined at each pH as previously described. Briefly, a stock solution was prepared for each compound by weighing 2 mg of the compound using a high-precision analytical balance. Each compound was then dissolved in DMSO at a concentration of 10 mM. A UV-transparent 96-well microplate (Corning clear acrylic 96-well UV plate with a UV-transparent flat bottom) was loaded with 196 μL of buffer solution and 4 μL of the catechol stock in each well to get a final concentration of 200 μM. DMSO (4 μL) was added to 196 μL of the appropriate buffer to produce a blank solution for each buffer.
The 96-well plate was loaded into the microplate reader and incubated at 30 °C and shaken for 10 min before the reading. Absorbance readings were completed by using a Synergy HTX 15032517 microplate reader. Each well was read at wavelengths from 210 to 600 nm with 2-nm increments for each scan over a duration of 60 min.
The data were analyzed as previously described. Raw UV-spectra scans were exported to the Excel program. They were first processed by subtracting the reading of the blank solutions from the reading of each compound at the corresponding wavelengths. […] Finally, the spectral difference between the pH 3.0 buffer and the spectra at all other pH values was plotted. Additionally, the spectral difference between the pH 4.0 buffer and the spectra at all other higher pH values was plotted. The wavelengths for the maximum positive and negative absorbance were determined by using the graphs of the spectral difference plots, both for the pH 3.0 and pH 4.0 spectral difference plots. The absolute maximum positive and total absorbance differences at these chosen wavelengths were plotted against the pH of each buffer. The data were imported into the Origin 6.0 program, and the pK a values were determined with a nonlinear regression using eq : 1 Absorbancetotal=εHA−εA−[10^(pH−pKa)]/1+10^(pH−pKa)×[St]
εHA is the extinction coefficients of the acid form of the compound, and εA ^– is the extinction coefficient of the base form of the compound (i.e., the minima and maxima of the absorbance difference curve, respectively), and [S t] is the total compound concentration.

[5] = percentage of the value for L-DOPA

N#Cc1cc(O)c(O)cc1CCC(=O)O [6-CyanoDHHCA (5), 3-(2-cyano-4,5-dihydroxyphenyl) propanoic acid]
activity / turnover as substrate ([1]; LmbB1, aerobic reaction observed by UV–visible spectroscopy): measurable activity
kcat at 22 °C and 100% O2 saturation ([1]; S. lincolnensis enzyme, pH 7.5): 6.7 × 10^–4 ± 2.8 × 10 ^–5 sec^–1
kSP,O2 × 10^2 at 22 °C ([1]; S. lincolnensis enzyme, values are kSP × 10^2): 1.4 × 10^–2 ± 3.0 × 10 ^–3 μM^–1 min^–1
kSP catechol × 10^2 at 22 °C ([1]; S. lincolnensis enzyme, values are kSP × 10^2, kSP = kcat/KM): 3.1 × 10^–2 ± 3.9 × 10 ^–3 μM^–1 min^–1
kSP, O2 (μM^-1 min^-1) at pH 7.5 relative to L-DOPA x 100 for LmbB1 ([1]; listed as 6-cyanoDHHCA): 0.02%
kSP, O2 (μM^-1 min^-1) at pH 7.5 relative to L-DOPA x 100 for LmbB1 ([1]; listed as 6-cyanoDHHCA (5)): < 0.1%
kcat at 22 °C and 100% O2 saturation ([2]; S. hygroscopicus jingganensis enzyme, pH 7.5): 1.1 × 10^–3 ± 1.0 × 10 ^–4 sec^–1
kSP,O2 × 10^2 at 22 °C ([2]; S. hygroscopicus jingganensis enzyme, values are kSP × 10^2): 4.0 × 10^–2 ± 6.0 × 10 ^–3 μM^–1 min^–1
kSP catechol × 10^2 at 22 °C ([2]; S. hygroscopicus jingganensis enzyme, values are kSP × 10^2, kSP = kcat/KM): 2.8 × 10^–2 ± 7.1 × 10 ^–3 μM^–1 min^–1
activity / turnover as substrate ([2]; ShjDDO, aerobic reaction observed by UV–visible spectroscopy): measurable activity
kSP, O2 (μM^-1 min^-1) at pH 7.5 relative to L-DOPA x 100 for ShjDDO ([2]; listed as 6-cyanoDHHCA): 0.03%
kSP, O2 (μM^-1 min^-1) at pH 7.5 relative to L-DOPA x 100 for ShjDDO ([2]; listed as 6-cyanoDHHCA (5)): < 0.1%
(E p)a Oxidation ([3]; pH 6.0): 358 mV
(E p)c Reduction ([3]; pH 6.0): 260 mV
E1/2 ([3]; pH 6.0): 309 mV
Ipa/Ipc ([3]; pH 6.0): 3.92
ΔE p ([3]; pH 6.0): 98 mV
(E p)a Oxidation ([3]; pH 7.4): 272 mV
(E p)c Reduction ([3]; pH 7.4): 147 mV
E1/2 ([3]; pH 7.4): 209.5 mV
Ipa/Ipc ([3]; pH 7.4): 1.96
ΔE p ([3]; pH 7.4): 125 mV
E1/2 (mV) at pH 7.4 relative to L-DOPA x 100 [3, 5]: 104%
ratio of charge states (k1/k-1) predicted by pKa value and Henderson-Hasselbach equation ([4]; at pH 7.35): 1.44
pK a value [4]: 7.51 ± 0.06
pK a value ([4]; listed as 6-cyanoDHHCA): 7.51
Catecholic pKa value relative to L-DOPA x 100 [4, 5]: 85%
